Measurements as given in patent publication US20130189354A1, “Novel Pharmaceutical Compositions for Treating Chronic Pain and Pain Associated with Neuropathy” (priority 2010, published 2013).
pIC50: −log10 of the molar value. Counter-ions that a name gives are not always drawn. Like-named read-outs stand apart in the source and are kept apart here.

Legend:
[1] = test system: central poststroke pain; details: 10 of 15 patients; cited from earlier work
[2] = test system: postherpetic neuralgia; details: oral; cited from earlier work
[3] = test system: painful diabetic neuropathy; details: oral; cited from earlier work
[4] = test system: α2δ subunit of voltage-gated calcium channels; details: cited from earlier work
[5] = test system: neuropathy-induced allodynia; details: in vivo; cited from earlier work
[6] = test system: Diabetic Neuropathy; assay: Pain relief in diabetic neuropathy patients (Table 1); assay type: in vivo, human; details: individual components at the doses present in TLI-0326 (40.4, 100, 200 mg/day); would have very little effect
Excerpt: (§1) The synergistic effect of the combination can further be appreciated using Table 1.

[7] = test system: Fibromyalgia; assay: Pain relief in fibromyalgia patients (Table 1); assay type: in vivo, human; details: individual components at the doses present in TLI-0326 (40.4, 100, 200 mg/day); would have very little effect
Excerpt: as §1

[8] = test system: postherpetic neuralgia; details: cited from earlier work
[9] = rats, i.v. administration; cited from earlier work
[10] = test system: post-operative pain; details: third molar surgery; cited from earlier work
[11] = diabetic peripheral neuropathy trials; cited from earlier work
[12] = fibromyalgia trials, cited from earlier work
[13] = test system: diabetic neuropathy and fibromyalgia; assay: Pain relief in patients with diabetic neuropathy and fibromyalgia; assay type: in vivo, human; details: 400 mg of tramadol per day
Excerpt: In certain preferred embodiments, the invention is directed in part to synergistic combinations of dextromethorphan or other NMDA receptor antagonist in an amount sufficient to render a therapeutic effect together with an anticonvulsant and/or a tricyclic anti-depressant and tramadol or its analog, such that an analgesic effect is attained which is at least about 5 (and preferably at least about 10) times greater than that obtained with the dose of tramadol or its analog alone. This is exemplified by the apparent fact that patients with diabetic neuropathy and fibromyalgia, who could not get even 30-40% reduction in pain even with the administration of 400 mg of tramadol per day, can have shown 90-100% pain relief with the inventive composition containing 35 mg of tramadol, 45 mg of dextromethorphan and 90 mg of gabapentin over a period of 12-16 hours.
as §1

[14] = biological target: μ-opiate receptor (Homo sapiens, UniProt P35372); details: cited from earlier work
Sequence of μ-opiate receptor (P35372 whole entry, species assumed): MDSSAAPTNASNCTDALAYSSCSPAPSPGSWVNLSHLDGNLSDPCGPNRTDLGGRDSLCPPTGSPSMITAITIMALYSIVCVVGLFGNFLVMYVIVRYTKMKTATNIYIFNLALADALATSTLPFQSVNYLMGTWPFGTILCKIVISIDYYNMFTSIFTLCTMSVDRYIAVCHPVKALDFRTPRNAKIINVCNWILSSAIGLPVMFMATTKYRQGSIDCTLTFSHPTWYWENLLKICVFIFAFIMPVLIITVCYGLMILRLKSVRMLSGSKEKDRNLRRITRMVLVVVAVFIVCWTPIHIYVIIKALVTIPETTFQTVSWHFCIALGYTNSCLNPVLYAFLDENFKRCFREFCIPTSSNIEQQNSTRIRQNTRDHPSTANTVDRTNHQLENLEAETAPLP

[15] = cited from earlier work
[16] = test system: pain; details: single oral dose of tramadol 100 mg; cited from earlier work
[17] = test system: Diabetic Neuropathy; details: literature values; Tramadol Hydrochloride 400 mg/day (Sindrup 1999), Gabapentin 3600 mg/day (Marchettini 2004); cited from earlier work
[18] = test system: Fibromyalgia; details: literature values; Tramadol Hydrochloride 400 mg/day (Biasi 1998; Russell 2000), Gabapentin 3600 mg/day (Lesley 2007); cited from earlier work
[19] = patients with epilepsy; cited from earlier work
[20] = test system: uptake of dopamine; details: cited from earlier work
[21] = test system: a or β adrenergic, muscarinic, histaminergic, and dopaminergic receptors; details: cited from earlier work
[22] = cited from earlier work; remark: listed apart in the source
[23] = test system: pain; details: relative to tramadol; cited from earlier work

CN(C)CCC=C1c2ccccc2CCc2ccccc21 [amitriptyline]
patients with superior relief compared with placebo [1]: 67% | share of patients with good or moderate response [2]: about two-thirds | share of patients with good or moderate response [3]: three-quarters

C[C@@H]1CCC[C@](CN)(CC(=O)O)C1 [(1R,3R)3-MeGBP]
pIC50 [4]: < 5.00 | reversal of neuropathy-induced allodynia [5]: ineffective

O=S(=O)([O-])[O-].[Mg+2] [Magnesium (present as magnesium sulfate)]
Pain Relief (percent of reduction in pain) Diabetic Neuropathy [6]: <10% | Pain Relief (percent of reduction in pain) Fibromyalgia [7]: <10% | pain scores compared with placebo ([8]; 30 mg kg-1 i.v., at 20 and 30 min (P=0.016), not at 10 min): significantly lower | safety, tolerability and efficacy ([8]; i.v., postherpetic neuralgia): safe, well-tolerated and effective

COc1cc(CNC(=O)CCCCC=CC(C)C)ccc1O [capsaicin, 8-methyl-N-vanillyl-6-nonenamide]
time to distribution to brain, spinal cord, liver and blood [9]: ≤ 20 min

C[C@@H]1CCC[C@@](CN)(CC(=O)O)C1 [(1S,3R)3-MeGBP]
pIC50 [4]: 7.38 | reversal of neuropathy-induced allodynia [5]: effectively reversed

N[C@@H](Cc1c[nH]c2ccccc12)C(=O)O [tryptophan]
effect on post-operative pain or consumption of other analgesics [10]: no effect

CC(C)C[C@H](CN)CC(=O)O [pregabalin]
patients discontinued prematurely due to adverse reactions [11]: 9% | withdrawal due to asthenia, confusion, and peripheral edema (each) [11]: approximately 1% | patients discontinued prematurely due to adverse reactions ([12]; 150-600 mg/day): 19% | withdrawal due to fatigue, headache, balance disorder, and weight increased (each) [12]: approximately 1%

COc1cccc(C2(O)CCCCC2CN(C)C)c1 (racemic) [tramadol, (+/−)-trans (RR,SS)-2-[(di-methylamino)methyl]-1-(3-methoxyphenyl)cyclohexanol]
reduction in pain [13]: 30-40% | affinity for opiate receptors, fold less than codeine ([14]; relative to codeine): 10 fold | affinity for opiate receptors, fold less than d-propoxyphene ([14]; relative to d-propoxyphene): 100 fold | affinity for opiate receptors relative to dextromethorphan ([14]; relative to dextromethorphan): equivalent | affinity for opiate receptors, fold less than morphine ([14]; relative to morphine): 6,000 fold | accumulation during multiple dose treatment ([15]; multiple dose treatment with tramadol): approximately 2 fold | bioavailability ([15]; oral administration): 68% | time to peak serum concentrations ([15]; oral administration): ≤ 2 h | half-life ([15]; single oral dose of 100 mg tramadol): 5.1 h | duration of the analgesic effect [16]: about 6 hours

NCC1(CC(=O)O)CCCCC1 [Gabapentin]
Pain Relief (percent of reduction in pain) Diabetic Neuropathy [17]: <50% | Pain Relief (percent of reduction in pain) Fibromyalgia [18]: <50% | steady-state predose (Cmin) concentration in cerebrospinal fluid as share of plasma concentration [19]: approximately 20%

CCN(CC)C(=O)C1(c2ccccc2)CC1CN.Cl (stereo not drawn) [milnacipran, 1-phenyl-1-diethyl-aminocarbonyl-2-aminomethyl-cyclopropane (Z) hydrochloride]
effect on uptake of dopamine [20]: does not affect | affinity for receptors [21]: no affinity | adverse event: constipation ([22]; 100 mg/day twice daily): 10% | adverse event: headache ([22]; 100 mg/day twice daily): 9% | adverse event: abdominal pain ([22]; 200 mg/day twice daily): 7% | adverse event: headache ([22]; 200 mg/day twice daily): 8% | adverse event: nausea and vomiting ([22]; 200 mg/day twice daily): 7%

CN(C)C[C@H]1CCCC[C@]1(O)c1cccc(O)c1 [O-desmethyltramadol (M1), O-desmethyltramadol]
analgesic potency relative to parent drug [23]: at least twice the analgesic potency of the parent drug

COc1cccc(C2(O)CCCCC2CN(C)C)c1 (stereo not drawn) [Tramadol Hydrochloride]
Pain Relief (percent of reduction in pain) Diabetic Neuropathy [6]: <10% | Pain Relief (percent of reduction in pain) Fibromyalgia [7]: <10% | Pain Relief (percent of reduction in pain) Diabetic Neuropathy [17]: <35% | Pain Relief (percent of reduction in pain) Fibromyalgia [18]: <30%
